Assay results as given in US10004683B2, “Antimicrobial formulations” (Common Pharma, Inc., priority 2015, dated 2018).

Test system: New Zealand White Rabbits
Assay: Dermal irritation test, ISO 10993-10:2010
Conditions: rabbits inspected at 1, 24, 48 and 72 hours; scale 0 to 0.4 Negligible, 0.5 to 1.9 Slight, 2 to 4.9 Moderate, 5 to 8 Severe
Protocol: The test was performed according to ISO 10993-10:2010. The test sample was 2% Noveon and 2% boric acid in water. A placebo was also tested which was only 2% Noveon in water. All testing was under GLP conditions. A negative control was used which was 0.9% Sodium Chloride for Injection, USP and a positive control was used which was 20% W/V of sodium dodecyl sulfate (SDS) in water.
The test animals were inspected at times 1, 24, 48 and 72 hours.

Q: How did the “dermal irritation observational rankings” value turn out when `CCCCCCCCCCCCOS(=O)(=O)[O-].[Na+]` [positive control, sodium dodecyl sulfate] was run?
A: The value was 2-4.
